Peptide text beside a SMILES is read from it.

Test [1] addresses T1, grass carp TACR3 (Ctenopharyngodon idella, UniProt A0A075BDW2).
T1 sequence (A0A075BDW2 1-395): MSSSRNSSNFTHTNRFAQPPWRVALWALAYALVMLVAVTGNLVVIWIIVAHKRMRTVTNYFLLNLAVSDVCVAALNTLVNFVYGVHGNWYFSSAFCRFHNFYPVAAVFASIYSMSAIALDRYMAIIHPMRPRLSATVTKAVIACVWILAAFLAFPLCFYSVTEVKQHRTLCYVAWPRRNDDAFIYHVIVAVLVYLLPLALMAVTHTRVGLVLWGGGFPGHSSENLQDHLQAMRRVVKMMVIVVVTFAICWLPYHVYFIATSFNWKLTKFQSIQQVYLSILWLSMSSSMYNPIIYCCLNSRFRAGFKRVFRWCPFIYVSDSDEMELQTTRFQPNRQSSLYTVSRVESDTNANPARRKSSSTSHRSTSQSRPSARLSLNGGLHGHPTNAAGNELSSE
Nature of the test: CRE-Luc luciferase reporter (cAMP pathway) in HEK-293 cells with stable expression of grass carp TACR3. It counts as cell-based, grass carp (Ctenopharyngodon idellus). The settings on record: SEM. On the technique in general: A reporter such as luciferase makes a cellular process visible.
Experimental: To clarify the ligand selectivity and signal transduction pathways of TACR3, functional expression of grass carp TACR3 was performed in HEK-293 cells with co-transfection of luciferase-expressing reporters targeting different signaling pathways provided by the Clontech Cell Signaling Profiling Kit (Clontech, Mountain View, CA, USA), including cAMP response element (CRE)-Luc (for cAMP pathway), activator protein-1 (AP1)-Luc (for PKC pathway), nuclear factor of activated T-cells (NFAT)-Luc (for Ca^2+/calcineurin pathway), and serum responsive element (SRE)-Luc (for MAPK pathway) [29]. […]
For the calcium bioluminescence signals and raw data obtained from luciferase reporter assays, the luminescence signals or luciferase activity was expressed as “relative luminescence unit (RLU)” registered by the fluorescence plate reader. For individual samples of the luciferase reporter assay, the firefly luciferase activity detected was routinely normalized against Renilla Luciferase activity expressed in the same well and expressed as the luciferase activity ration (as “Luc Ratio”). […] The six replicates presented (expressed as Mean ± SEM) were pooled results from two individual experiments prior to statistical analysis; all data were tested for normality of distribution using the Shapiro–Wilk normality test. […]

For test [2], the target named is T1, grass carp TACR3. In words: Fluorescence-based receptor binding assay, displacement of FAM-NKBa tracer. The settings on record: HEK-293 cells with stable expression of grass carp TACR3, 30 min pretreatment with competitor (0.1–1000 nM), then FAM-NKBa (10 nM) 30 min, 37 °C, fluorescence 490/520 nm; read-out: IC50 for displacing FAM-NKBa binding. More on the design: species or system grass carp (Ctenopharyngodon idellus).

The subject of test [3] is SLα mRNA expression in grass carp pituitary cells. Nature of the test: SLα mRNA expression (qPCR) in grass carp pituitary cells. It counts as cell-based, grass carp (Ctenopharyngodon idellus). The settings on record: senktide 1 µM, IGF-I/-II 100 nM (Figure 4E). The protocol: Grass carp pituitary cells prepared by the trypsin/DNase digestion method were seeded in 24-well plates at ~2.5 × 10^6 cells/mL/well. On the following day, drug treatment was initiated by replacing the old medium with a testing medium with the appropriate levels of test substances, and the cells were then allowed to incubate at 28 °C for the duration as indicated. After drug treatment, total RNA was extracted from individual wells and reversely transcribed as above. The RT samples obtained were subjected to qPCR using a LightCycler SYBR Green I Kit (Roche, Stockholm, Sweden) with the primers mentioned above. In these studies, serial dilutions of plasmid DNA containing the ORF of SLα (GeneBank no.: EF372074) and TACR3 (GenBank no: JQ254913) cDNA were used as the standards for data calibration. Parallel real-time PCR measurement of β-actin was also conducted in individual experiments to serve as the internal control.
For real-time PCR of SLα and TACR3 mRNA measurement, standard curves with a dynamic range of ≥10^5 and correlation coefficient of ≥0.95 were used for data calibration with the RotorGene-Q software 1.7 (Qiagen) under unsupervised mode. SLα and TACR3 mRNA data were normalized with the β-actin transcript level and then were transformed as a percentage of the mean value in the control group without drug treatment (as “%Ctrl”). For the calcium bioluminescence signals and raw data obtained from luciferase reporter assays, the luminescence signals or luciferase activity was expressed as “relative luminescence unit (RLU)” registered by the fluorescence plate reader. For individual samples of the luciferase reporter assay, the firefly luciferase activity detected was routinely normalized against Renilla Luciferase activity expressed in the same well and expressed as the luciferase activity ration (as “Luc Ratio”). For receptor binding assay, specific binding of FAM-NKBa was measured in terms of “Arbitrary Fluorescence Unit (AFU)”. The six replicates presented (expressed as Mean ± SEM) were pooled results from two individual experiments prior to statistical analysis; all data were tested for normality of distribution using the Shapiro–Wilk normality test. Then, one-way ANOVA and two-way ANOVA were used to test the significant difference according to different experiment groups. The differences between groups were considered as significant at P < 0.05 (“*”) or highly significant at P < 0.01 (“**”).

The test system of the next test is Akt. Nature of the test: Western blot for signaling kinases: Akt phosphorylation. It is filed as cell-based, grass carp (Ctenopharyngodon idellus). The conditions noted are these: grass carp pituitary cells, senktide (1 µM) + IGF-I (50 nM), 15 min. The protocol: (§1) The pituitary cells derived from twenty grass carp pituitaries were seeded in 24-well culture plates at a density of 2.5 × 10^6 cells/mL/well and incubated with drug treatment for the duration as indicated in the individual experiments. […] After drug treatment, the culture medium from individual wells was removed and the remaining cells were rinsed with PBS and lysed in RIPA buffer (50 mM Tris^·HCl, 150 mM NaCl, 1 mM EDTA, 1% NP-40, and 0.25% Na deoxycholate), containing a final concentration of 1×protease/phosphatase inhibitor cocktail (Roche). The cell lysate was cleared by high-speed centrifugation at 4 °C, the clear supernatant was resolved in 10% gel by SDS-PAGE, and Western blotting was conducted according to the procedures as previously described. The antibodies that can be detected, the phosphorylated and total ERK1/2 (1:5,000), MEK1/2 (1:1,000), p38 MAPK (1:1,000), and Akt (1:1,000), were used at the dilutions recommended by the manufactures. […] Chemiluminescence signals for target immune-reactivity were detected using SuperSignal West Pico (PIERCE, Rockford, IL, USA) as the substrate and quantified using the IC440 CF Digital Science Image Station (Eastman Kodak, Rochester, NY, USA). […]
In general terms: A western blot detects proteins with antibodies after separation by electrophoresis.

The subject of the next test is p38MAPK. Nature of the test: Western blot for signaling kinases: p38MAPK phosphorylation. It is filed as cell-based, grass carp (Ctenopharyngodon idellus). The conditions noted are these: grass carp pituitary cells, senktide (1 µM) + IGF-I (50 nM), 15 min. Here is the method:
as §1

Another test has as its system MEK1/2. Nature of the test: Western blot for signaling kinases: MEK1/2 phosphorylation. It counts as cell-based, grass carp (Ctenopharyngodon idellus). The settings on record: grass carp pituitary cells, senktide (1 µM) + IGF-I (50 nM), 15 min. The protocol:
as §1

In another test the test system is ERK1/2. In words: Western blot for signaling kinases: ERK1/2 phosphorylation. It counts as cell-based, grass carp (Ctenopharyngodon idellus). The settings on record: grass carp pituitary cells, senktide (1 µM) + IGF-I (50 nM), 15 min. Here is the method:
as §1

A word on the EC50: it is the concentration that produces a half-maximal response. By IC50 is commonly meant the point on the concentration scale where inhibition reaches its midpoint. For the compound `CSCC[C@H](NC(=O)[C@H](CC(C)C)NC(=O)CNC(=O)[C@H](Cc1ccccc1)N(C)C(=O)[C@H](Cc1ccccc1)NC(=O)[C@H](CC(=O)O)NC(=O)CCC(=O)O)C(N)=O` [senktide] (HELM PEPTIDE1{[O=C(O)CCC(=O)[*:2]].D.F.[meF].G.L.M.[am]}$$$$V2.0; N-terminus and C-terminus assumed), on grass carp TACR3 [1], it took 21.3 ± 3.2 nM to reach a half-maximal effect (EC50). Moreover, the IC50 at grass carp TACR3 [2] was 71.2 ± 9.23 nM. Further, in test [3], the “SLα mRNA expression on cotreatment of TACR3 agonist with IGF-I or IGF-II” value is on record as “mimic the synergistic effects”. Moreover, in the test with Akt, the “effect of cotreatment on IGF-I-induced protein phosphorylation of Akt” value is on record as “noticeable potentiating effect”. The “effect of cotreatment on IGF-I-induced protein phosphorylation of p38MAPK” value with p38MAPK is on record as “did not alter”. Further, the “effect of cotreatment on IGF-I-induced protein phosphorylation of MEK1/2” value in the test with MEK1/2 is given as “did not alter”. Also, the “effect of cotreatment on IGF-I-induced protein phosphorylation of ERK1/2” value with ERK1/2 was “did not alter”.

Values taken from PMC6721824, “IGFs Potentiate TAC3-induced SLα Expression via Upregulation of TACR3 Expression in Grass Carp Pituitary Cells” (Cells, 2019).
